# Measurements from patent US9944602B2, “Piperidinone herbicides” (E. I. DU PONT DE NEMOURS AND COMPANY, priority 2014, dated 2018).
# Key:
# [1] = tested on: sedge, umbrella (small-flower umbrella sedge, Cyperus difformis); assay: Test C flooded paddy test sedge, umbrella; assay type: in vivo; settings: Table C, Flood, scale 0 to 100
# Outline: (§1)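 Plants grown to the 2-leaf stage in pots flooded to 3 cm above soil; compounds applied directly into the paddy water, depth held throughout. After 13 to 15 d in greenhouse, injury visually rated against untreated controls on a 0–100 scale (0 no effect, 100 complete control).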
# [2] = tested on: ducksalad (Heteranthera limosa); assay: Test C flooded paddy test ducksalad; assay type: in vivo; settings: Table C, Flood, scale 0 to 100
# Outline: as §1
# corn (Zea mays) = assay: Test A postemergence corn; assay type: in vivo; settings: Zea mays, post-emergence, 240 h, 0 to 100 scale, 0 is no effect, 100 is complete control; for Corn plant response rating (crop injury, 0 = no effect, 100 = complete kill) at 125 g/ha: 125 g ai/ha; for Corn plant response rating (crop injury, 0 = no effect, 100 = complete kill) at 500 g/ha: 500 g ai/ha
# Outline: (§2)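 Injury was scored by eye on a 0 to 100 scale after about 10 days in the greenhouse, with 100 meaning complete control. Preemergence treatment was a directed spray onto soil over seeds; postemergence treatment went onto one- to two-leaf plants 2–10 cm tall.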
# [3] = tested on: foxtail, giant (giant foxtail, Setaria faberii); assay: Test A postemergence foxtail, giant; assay type: in vivo; settings: Setaria faberi, post-emergence, 240 h, 0 to 100 scale, 0 is no effect, 100 is complete control, read-out: Plant response rating, Foxtail, Giant; for pest or weed control at 125 g/ha: 125 g ai/ha; for pest or weed control at 500 g/ha: 500 g ai/ha
# Outline: as §2
# [4] = tested on: barnyardgrass (Echinochloa crus-galli); assay: Test A postemergence barnyardgrass; assay type: in vivo; settings: Echinochloa crus-galli, post-emergence, 240 h, 0 to 100 scale, 0 is no effect, 100 is complete control, read-out: Plant response rating, Barnyardgrass; for pest or weed control at 125 g/ha: 125 g ai/ha; for pest or weed control at 500 g/ha: 500 g ai/ha
# Outline: as §2
# [5] = tested on: ducksalad (Heteranthera limosa); assay: Test B flooded paddy test ducksalad; assay type: in vivo; settings: Heteranthera limosa, Table B, Flood, 250 g ai/ha, scale 0 to 100, read-out: Plant response rating
# Outline: (§3)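 Test pots carrying 2-leaf-stage seedlings were flooded to 3 cm above the soil surface when treated. Compound went directly into the standing water. Plants stayed in the greenhouse at that depth for 13 to 15 d before visual comparison with controls.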
# [6] = tested on: barnyardgrass (Echinochloa crus-galli); assay: Test C flooded paddy test barnyardgrass; assay type: in vivo; settings: Table C, Flood, scale 0 to 100
# Outline: as §1
# rice (Oryza sativa) [7] = assay: Test B flooded paddy test rice; assay type: in vivo; settings: Oryza sativa, Table B, Flood, 250 g ai/ha, scale 0 to 100, read-out: Plant response rating
# Outline: as §3
# [8] = tested on: sedge, umbrella (small-flower umbrella sedge, Cyperus difformis); assay: Test B flooded paddy test sedge, umbrella; assay type: in vivo; settings: Cyperus difformis, Table B, Flood, 250 g ai/ha, scale 0 to 100, read-out: Plant response rating
# Outline: as §3
# [9] = tested on: barnyardgrass (Echinochloa crus-galli); assay: Test A preemergence barnyardgrass; assay type: in vivo; settings: 0 to 100 scale; for Plant response rating, Barnyardgrass: 500 g ai/ha, 0 is no effect, 100 is complete control; for pest or weed control at 125 g/ha: Echinochloa crus-galli, pre-emergence, 240 h, 125 g ai/ha, 0 no effect, 100 complete control, read-out: Barnyardgrass plant response rating
# Outline: as §2
# [10] = tested on: foxtail, giant (giant foxtail, Setaria faberii); assay: Test A preemergence foxtail, giant; assay type: in vivo; settings: Setaria faberi, pre-emergence, 240 h, 0 to 100 scale, 0 no effect, 100 complete control, read-out: Foxtail, Giant plant response rating; for pest or weed control at 125 g/ha: 125 g ai/ha; for pest or weed control at 500 g/ha: 500 g ai/ha
# Outline: as §2
# rice (Oryza sativa) [11] = assay: Test C flooded paddy test rice; assay type: in vivo; settings: Table C, Flood, scale 0 to 100
# Outline: as §1
# [12] = tested on: pigweed (Amaranthus retroflexus); assay: Test A preemergence pigweed; assay type: in vivo; settings: Amaranthus retroflexus, pre-emergence, 240 h, 0 to 100 scale, 0 no effect, 100 complete control, read-out: Pigweed plant response rating; for pest or weed control at 125 g/ha: 125 g ai/ha; for pest or weed control at 500 g/ha: 500 g ai/ha
# Outline: as §2
# [13] = tested on: pigweed (Amaranthus retroflexus); assay: Test A postemergence pigweed; assay type: in vivo; settings: Amaranthus retroflexus, post-emergence, 240 h, 0 to 100 scale, 0 is no effect, 100 is complete control, read-out: Plant response rating, Pigweed; for pest or weed control at 125 g/ha: 125 g ai/ha; for pest or weed control at 500 g/ha: 500 g ai/ha
# Outline: as §2
# [14] = tested on: barnyardgrass (Echinochloa crus-galli); assay: Test B flooded paddy test barnyardgrass; assay type: in vivo; settings: Echinochloa crus-galli, Table B, Flood, 250 g ai/ha, scale 0 to 100, read-out: Plant response rating
# Outline: as §3
# [15] = tested on: wheat (Triticum aestivum); assay: Test A postemergence wheat; assay type: in vivo; settings: Triticum aestivum, post-emergence, 240 h, 0 to 100 scale, 0 is no effect, 100 is complete control, read-out: Plant response rating, Wheat; for plant injury at 125 g/ha: 125 g ai/ha; for plant injury at 500 g/ha: 500 g ai/ha
# Outline: as §2
# [16] = tested on: ragweed (common ragweed, Ambrosia elatior); assay: Test A postemergence ragweed; assay type: in vivo; settings: Ambrosia artemisiifolia, post-emergence, 240 h, 0 to 100 scale, 0 is no effect, 100 is complete control, read-out: Plant response rating, Ragweed
# Outline: as §2
# [17] = tested on: ryegrass, Italian (Italian ryegrass, Lolium multiflorum); assay: Test A preemergence ryegrass, Italian; assay type: in vivo; settings: Lolium multiflorum, pre-emergence, 240 h, 0 to 100 scale, 0 no effect, 100 complete control, read-out: Ryegrass, Italian plant response rating
# Outline: as §2
# kochia (Kochia scoparia) [18] = assay: Test A postemergence kochia; assay type: in vivo; settings: Bassia scoparia, post-emergence, 240 h, 0 to 100 scale, 0 is no effect, 100 is complete control, read-out: Plant response rating, Kochia
# Outline: as §2
# [19] = tested on: ryegrass, Italian (Italian ryegrass, Lolium multiflorum); assay: Test A postemergence ryegrass, Italian; assay type: in vivo; settings: Lolium multiflorum, post-emergence, 240 h, 0 to 100 scale, 0 is no effect, 100 is complete control, read-out: Plant response rating, Ryegrass, Italian
# Outline: as §2
# [20] = tested on: ragweed (common ragweed, Ambrosia elatior); assay: Test A preemergence ragweed; assay type: in vivo; settings: Ambrosia artemisiifolia, pre-emergence, 240 h, 0 to 100 scale, 0 no effect, 100 complete control, read-out: Ragweed plant response rating
# Outline: as §2
# [21] = tested on: galium (catchweed bedstraw, Galium aparine); assay: Test A postemergence galium; assay type: in vivo; settings: Galium, post-emergence, 240 h, 0 to 100 scale, 0 is no effect, 100 is complete control, read-out: Plant response rating, Galium
# Outline: as §2
# kochia (Kochia scoparia) [22] = assay: Test A preemergence kochia; assay type: in vivo; settings: Bassia scoparia, pre-emergence, 240 h, 0 to 100 scale, 0 no effect, 100 complete control, read-out: Kochia plant response rating
# Outline: as §2
# [23] = tested on: blackgrass (Alopecurus myosuroides); assay: Test A postemergence blackgrass; assay type: in vivo; settings: Alopecurus myosuroides, post-emergence, 240 h, 0 to 100 scale, 0 is no effect, 100 is complete control, read-out: Plant response rating, Blackgrass
# Outline: as §2
smiles,measurement,setting,value
"O=C1NCCC(c2cccc(C(F)(F)F)c2)C1C(=O)Nc1ccccc1C(F)(F)F (centres unmarked) [Compound 10, 2-oxo-N-[2-(trifluoromethyl)phenyl)-4-[3-(trifluoromethyl)phenyl]-3-piperidinecarboxamide]",Plant response rating,[1]; 1000 g ai/ha,0
same,Plant response rating,[2]; 1000 g ai/ha,85
same,"Corn plant response rating (crop injury, 0 = no effect, 100 = complete kill) at 125 g/ha",corn (Zea mays),0%
same,"Corn plant response rating (crop injury, 0 = no effect, 100 = complete kill) at 500 g/ha",corn (Zea mays),0%
same,pest or weed control at 125 g/ha,[3],40%
same,pest or weed control at 500 g/ha,[3],70%
same,pest or weed control at 125 g/ha,[4],80%
same,pest or weed control at 500 g/ha,[4],90%
same,melting point,,292 to 295 °C
same,pest or weed control at 250 g/ha,[5],40%
same,Plant response rating,[6]; 1000 g ai/ha,65
same,plant injury at 250 g/ha,rice (Oryza sativa) [7],10%
same,pest or weed control at 250 g/ha,[8],0%
same,"Plant response rating, Barnyardgrass",[9],90
same,pest or weed control at 125 g/ha,[9],60%
same,pest or weed control at 125 g/ha,[10],90%
same,pest or weed control at 500 g/ha,[10],90%
same,Plant response rating,rice (Oryza sativa) [11]; 1000 g ai/ha,10
same,pest or weed control at 125 g/ha,[12],0%
same,pest or weed control at 500 g/ha,[12],0%
same,pest or weed control at 125 g/ha,[13],0%
same,pest or weed control at 500 g/ha,[13],0%
same,pest or weed control at 250 g/ha,[14],0%
same,plant injury at 125 g/ha,[15],0%
same,plant injury at 500 g/ha,[15],0%
"O=C1NCCC(c2ccc(C(F)(F)F)cc2)C1C(=O)Nc1cccc(F)c1F (centres unmarked) [Compound 11, N-(2,3-difluorophenyl)-2-oxo-4-[4-(trifluoromethyl)phenyl]-3-piperidinecarboxamide]",Plant response rating,[1]; 125 g ai/ha,0
same,Plant response rating,[1]; 250 g ai/ha,0
same,Plant response rating,[1]; 500 g ai/ha,0
same,Plant response rating,[1]; 1000 g ai/ha,0
same,pest or weed control at 125 g/ha,[16]; 125 g ai/ha,0%
same,pest or weed control at 500 g/ha,[16]; 500 g ai/ha,20%
same,Plant response rating,[2]; 125 g ai/ha,30
same,Plant response rating,[2]; 250 g ai/ha,80
same,Plant response rating,[2]; 500 g ai/ha,95
same,Plant response rating,[2]; 1000 g ai/ha,100
same,"Corn plant response rating (crop injury, 0 = no effect, 100 = complete kill) at 125 g/ha",corn (Zea mays),0%
same,"Corn plant response rating (crop injury, 0 = no effect, 100 = complete kill) at 500 g/ha",corn (Zea mays),40%
same,pest or weed control at 125 g/ha,[3],80%
same,pest or weed control at 500 g/ha,[3],90%
same,pest or weed control at 125 g/ha,[4],70%
same,pest or weed control at 500 g/ha,[4],90%
same,melting point,,180 to 182 °C
same,pest or weed control at 125 g/ha,[17]; 125 g ai/ha,0%
same,pest or weed control at 500 g/ha,[17]; 500 g ai/ha,0%
same,Plant response rating,[6]; 125 g ai/ha,10
same,Plant response rating,[6]; 250 g ai/ha,20
same,Plant response rating,[6]; 500 g ai/ha,50
same,Plant response rating,[6]; 1000 g ai/ha,70
same,pest or weed control at 125 g/ha,kochia (Kochia scoparia) [18]; 125 g ai/ha,20%
same,pest or weed control at 500 g/ha,kochia (Kochia scoparia) [18]; 500 g ai/ha,50%
same,"Plant response rating, Barnyardgrass",[9],90
same,pest or weed control at 125 g/ha,[9],60%
same,pest or weed control at 125 g/ha,[10],70%
same,pest or weed control at 500 g/ha,[10],90%
same,pest or weed control at 125 g/ha,[19]; 125 g ai/ha,0%
same,pest or weed control at 500 g/ha,[19]; 500 g ai/ha,30%
same,Plant response rating,rice (Oryza sativa) [11]; 125 g ai/ha,0
same,Plant response rating,rice (Oryza sativa) [11]; 250 g ai/ha,0
same,Plant response rating,rice (Oryza sativa) [11]; 500 g ai/ha,0
same,Plant response rating,rice (Oryza sativa) [11]; 1000 g ai/ha,0
same,pest or weed control at 125 g/ha,[12],0%
same,pest or weed control at 500 g/ha,[12],40%
same,pest or weed control at 125 g/ha,[20]; 125 g ai/ha,40%
same,pest or weed control at 500 g/ha,[20]; 500 g ai/ha,80%
same,pest or weed control at 125 g/ha,[21]; 125 g ai/ha,40%
same,pest or weed control at 500 g/ha,[21]; 500 g ai/ha,60%
same,pest or weed control at 125 g/ha,[13],0%
same,pest or weed control at 500 g/ha,[13],30%
same,pest or weed control at 125 g/ha,kochia (Kochia scoparia) [22]; 125 g ai/ha,0%
same,pest or weed control at 500 g/ha,kochia (Kochia scoparia) [22]; 500 g ai/ha,60%
same,plant injury at 125 g/ha,[15],0%
same,plant injury at 500 g/ha,[15],50%
same,pest or weed control at 125 g/ha,[23]; 125 g ai/ha,20%
same,pest or weed control at 500 g/ha,[23]; 500 g ai/ha,50%
